Assay results reported in paper PMC2662044 (European journal of medicinal chemistry, 2008).
Entries after “also recorded” stand apart in the source; their conditions may differ. Read-outs that look alike come from different tables or passages of the source.

Key:
Kv1.5 [1] = target: T1, Kv1.5 (Homo sapiens, UniProt P22460); details: Table 1, cited from earlier work; for IC50: read-out: IC50 value Kv1.5
Kv1.3 [2] = target: T2, Kv1.3 (Mus musculus, UniProt P16390); assay type: cell-based; details: for IC50: IC50 Kv1.3, text; for Effect on Kv1.3: concentration of 10 µM where stated
Kv1.5 [3] = target: T1, Kv1.5; assay: Kv1.5 inhibition, whole-cell patch-clamp, currents recorded from MEL-C88 cells; assay type: cell-based; details: for Selectivity IC50 (Kv1.5)/IC50 (Kv1.3): Table 1
[4] = HPLC studies on stability in DMSO stock and Ringer solution; assay type: physicochemical; details: data not shown
type-1 diabetes = details: rat models; cited from earlier work
[5] = cited from earlier work
[6] = cited from earlier work; remark: listed apart in the source
[7] = administration for 28 days or 6 months, rats or rhesus macaques; cited from earlier work
[8] = test system: oxazolone-induced allergic contact dermatitis; details: rat models; cited from earlier work
Kv1.3 [9] = target: T2, Kv1.3; details: read-out: IC50 Kv1.3; cited from earlier work

T1 sequence (P22460 whole entry): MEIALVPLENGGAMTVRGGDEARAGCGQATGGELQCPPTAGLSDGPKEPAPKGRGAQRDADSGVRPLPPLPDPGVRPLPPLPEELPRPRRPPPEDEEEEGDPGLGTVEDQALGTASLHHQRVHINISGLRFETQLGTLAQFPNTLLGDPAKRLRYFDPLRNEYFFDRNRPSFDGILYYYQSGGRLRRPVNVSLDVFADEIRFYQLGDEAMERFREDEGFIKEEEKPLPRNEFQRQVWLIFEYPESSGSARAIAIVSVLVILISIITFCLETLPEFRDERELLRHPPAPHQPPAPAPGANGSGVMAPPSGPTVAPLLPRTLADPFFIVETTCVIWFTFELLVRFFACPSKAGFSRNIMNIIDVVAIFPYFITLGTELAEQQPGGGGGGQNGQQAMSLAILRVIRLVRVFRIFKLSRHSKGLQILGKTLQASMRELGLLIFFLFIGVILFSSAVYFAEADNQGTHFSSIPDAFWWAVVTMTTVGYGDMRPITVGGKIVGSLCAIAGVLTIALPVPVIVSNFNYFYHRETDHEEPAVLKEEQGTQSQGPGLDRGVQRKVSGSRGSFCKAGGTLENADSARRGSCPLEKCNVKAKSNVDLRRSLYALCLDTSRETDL
T2 sequence (P16390 whole entry): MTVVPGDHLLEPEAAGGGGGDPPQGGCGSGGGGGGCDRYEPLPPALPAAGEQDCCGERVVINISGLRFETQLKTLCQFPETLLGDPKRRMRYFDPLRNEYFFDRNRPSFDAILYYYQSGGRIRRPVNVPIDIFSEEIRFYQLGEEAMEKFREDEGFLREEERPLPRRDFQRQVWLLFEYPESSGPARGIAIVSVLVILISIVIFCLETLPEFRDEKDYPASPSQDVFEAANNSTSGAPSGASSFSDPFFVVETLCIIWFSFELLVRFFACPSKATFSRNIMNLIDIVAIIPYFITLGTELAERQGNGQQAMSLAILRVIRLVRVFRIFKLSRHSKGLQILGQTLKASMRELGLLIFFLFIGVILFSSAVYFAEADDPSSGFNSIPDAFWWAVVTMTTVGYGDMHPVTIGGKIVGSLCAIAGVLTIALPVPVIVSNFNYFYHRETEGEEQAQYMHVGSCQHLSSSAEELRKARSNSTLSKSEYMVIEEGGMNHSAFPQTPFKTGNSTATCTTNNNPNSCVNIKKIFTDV

In the case of `COc1c2ccoc2cc2oc(=O)ccc12` [Compound 5-MOP, 5-methoxypsoralen], the “Selectivity IC50 (Kv1.5)/IC50 (Kv1.3)” value (Kv1.5 [1]) is listed as 1.75 and the IC50 (Kv1.5 [1]) is listed as 177 µM.
`c1ccc(OCCCCOc2ccccc2)cc1` [Compound 15, 1,1'[1,4-Butanediyl(oxy)]bis-benzene] gave an IC50 (Kv1.3 [2]) of over 10 µM.
Work on `c1ccc(OCCCCOc2cccc3ccccc23)cc1` [Compound 16, 1-(4-Phenoxybutoxy)naphthalene] yielded an IC50 (Kv1.3 [2]) of over 10 µM.
In the case of `c1ccc(OCCCCOc2ccnc3ccccc23)cc1` [Compound 17, 4-(4-Phenoxybutoxy)quinoline], the IC50 (Kv1.5 [3]) is reported as 3.5 µM, the “Selectivity (IC50 for Kv1.5 divided by the IC50 for Kv1.3)” value (Kv1.5 [3]) is reported as 0.34 fold and the “Times more potent on Kv1.5 than on Kv1.3” value (Kv1.5 [3]) is reported as “roughly 3 times”. For the same compound, the “Selectivity IC50 (Kv1.5)/IC50 (Kv1.3)” value (Kv1.5 [3]) was under 0.35 and the “Effect on Kv1.3” value (Kv1.3 [2]) was “ineffective”.
For `c1ccc(OCCCCOc2ncnc3ccccc23)cc1` [Compound 19, 4-(4-Phenoxybutoxy)quinazoline], the IC50 (Kv1.5 [3]) was about 25 µM and the “Effect on Kv1.3” value (Kv1.3 [2]) was “ineffective”.
For `O=c1cc(OCCCCOc2ccccc2)c2ccccc2o1` [Compound 21, 4-(4-Phenoxybutoxy)-2H-[1]benzopyran-2-one], the IC50 (Kv1.5 [3]) was 1.5 µM and the “Selectivity IC50 (Kv1.5)/IC50 (Kv1.3)” value (Kv1.5 [3]) was 1.69.
For `COc1c2occc2c(OC)c2c(OCCCCOc3ccccc3)cc(=O)oc12` [Compound 23, 5,8-Dimethoxy-4-(4-phenoxybutoxy)psoralen], the IC50 (Kv1.5 [3]) was 0.85 µM and the “Selectivity IC50 (Kv1.5)/IC50 (Kv1.3)” value (Kv1.5 [3]) was 1.89.
In the case of `O=C1c2ccccc2C(=O)c2c(OCCCCOc3ccccc3)cccc21` [Compound 25, 1-(4-Phenoxybutoxy)anthraquinone], the IC50 (Kv1.5 [3]) is reported as 10 µM and the “Selectivity IC50 (Kv1.5)/IC50 (Kv1.3)” value (Kv1.5 [3]) is reported as 1.43.
With `c1ccc(OCCCCOc2cc3ccccc3c3ccccc23)cc1` [Compound 26, 9-(4-Phenoxybutoxy)phenanthrene] the IC50 (Kv1.3 [2]) was over 10 µM.
For `COc1cccc2c(=O)c3ccccc3n(CCCCOc3ccccc3)c12` [Compound 28, 9,10-Dihydro-4-methoxy-N-(4-phenoxybutyl)acridin-9-one], the IC50 (Kv1.5 [3]) was 0.45 µM and the “Selectivity IC50 (Kv1.5)/IC50 (Kv1.3)” value (Kv1.5 [3]) was 2.73.
For `COc1cc2nc3occc3c(OCCCCOc3ccccc3)c2cc1OC` [Compound 34, 6,7-Dimethoxy-4-(4-phenoxybutoxy)furo[2,3-b]quinoline], the IC50 (Kv1.5 [3]) was 0.48 µM, the “Selectivity IC50 (Kv1.5)/IC50 (Kv1.3)” value (Kv1.5 [3]) was 3.2 and the “Kinetics of block (mode of Kv1.3 block)” value (Kv1.3 [2]) was “block the C-type inactivated state; also recorded: use-dependence”.
With `COc1ccc2c(OCCCCOc3ccccc3)c3ccoc3nc2c1OC` [Compound 35, 7,8-Dimethoxy-4-(4-phenoxybutoxy)furo[2,3-b]quinoline] the “Kinetics of block (mode of Kv1.3 block)” value (Kv1.3 [2]) was “block the C-type inactivated state; also recorded: use-dependence”.
In the case of `Cc1cc(=O)c2c(OCCCCOc3ccccc3)c3ccoc3cc2o1` [Compound 36, 7-Methyl-4-(4-phenoxybutoxy)-5H-furo[3,2-g][1]benzopyran-5-one], the IC50 (Kv1.5 [3]) is reported as 0.31 µM, the “Selectivity IC50 (Kv1.5)/IC50 (Kv1.3)” value (Kv1.5 [3]) is reported as 1.33 and the “Kinetics of block (mode of Kv1.3 block)” value (Kv1.3 [2]) is reported as “block the C-type inactivated state; also recorded: use-dependence”.
With `COc1c2occc2c(OCCCCOc2ccccc2)c2c(=O)cc(C)oc12` [Compound 37, 9-Methoxy-7-methyl-4-(4-phenoxybutoxy)-5H-furo[3,2-g][1]benzopyran-5-one] the IC50 (Kv1.5 [3]) was 2.5 µM and the “Selectivity IC50 (Kv1.5)/IC50 (Kv1.3)” value (Kv1.5 [3]) was 1.67.
For `O=c1ccc2c(OCCCCOc3ccccc3)cccc2o1` [Compound 42, 5-(4-Phenoxybutoxy)-2H-[1]benzopyran-2-one], the IC50 (Kv1.5 [3]) was 0.52 µM and the “Selectivity IC50 (Kv1.5)/IC50 (Kv1.3)” value (Kv1.5 [3]) was 3.47.
In the case of `Cc1cc(=O)c2c(OCCCCOc3ccccc3)c3c(cc2o1)OCO3` [Compound 56, 2-Methyl-6,7-methylendioxy-5-(4-phenoxybutoxy)-4H-[1]benzopyran-4-one], the “Times more potent on Kv1.5 than on Kv1.3” value (Kv1.5 [3]) is reported as “roughly 3 times”.
In the case of `COc1c2ccoc2c(OCCCCOc2ccccc2)c2oc(=O)cc(C)c12` [Compound 63, 5-Methoxy-4-methyl-8-(4-phenoxybutoxy)psoralen], the IC50 (Kv1.5 [3]) is reported as 0.28 µM, the “Times more potent on Kv1.5 than on Kv1.3” value (Kv1.5 [3]) is reported as “roughly 3 times” and the “Selectivity IC50 (Kv1.5)/IC50 (Kv1.3)” value (Kv1.5 [3]) is reported as 0.88. The “Kinetics of block (mode of Kv1.3 block)” value (Kv1.3 [2]) was “open-channel blockers”.
For `S=c1ccc2c(OCCCCOc3ccccc3)c3ccoc3cc2o1` [Compound 73, 4-(4-Phenoxybutoxy)-7H-furo[3,2-g]chromene-7-thione], the IC50 (Kv1.5 [3]) was 0.38 µM, the “Times more potent on Kv1.5 than on Kv1.3” value (Kv1.5 [3]) was 22 times and the “Selectivity IC50 (Kv1.5)/IC50 (Kv1.3)” value (Kv1.5 [3]) was 22. For the same compound, the “Stability in DMSO stock solutions (HPLC)” value ([4]; DMSO stock solutions) was “more than 12 months”, the “Stability in Ringer solution (HPLC)” value ([4]; Ringer solution) was “at least 24 hours” and the “Kinetics of block (mode of Kv1.3 block)” value (Kv1.3 [2]) was “block the C-type inactivated state; also recorded: use-dependence”.
In the case of `O=c1ccc2c(OCCCCOc3ccccc3)c3ccoc3cc2o1` [PAP-1, 5-(4-phenoxybutoxy)psoralen], the “Effect on onset and incidence of type-1 diabetes” value (type-1 diabetes) is listed as “significantly delays the onset and reduces the incidence of type-1 diabetes”, the “in vitro or in vivo toxicity” value [5] is listed as “does not display any in vitro or in vivo toxicity” and the phototoxicity [6] is listed as “not phototoxic”. The IC50 (Kv1.5 [1]) was 0.045 µM, the “Changes in liver enzymes or liver pathology” value [7] was “does not lead to any changes in liver enzymes or liver pathology” and the “Potency on Kv1.3 in comparison to 5-MOP” value (Kv1.3 [2]) was “more than 1000 fold”. The “Effect on oxazolone-induced allergic contact dermatitis” value [8] was “effectively suppresses oxazolone-induced allergic contact dermatitis”.
For `COc1cc2nc3occc3c(OC)c2cc1OC` [kokusagenine, 4,6,7-trimethoxyfuro[2,3-b]quinoline], the IC50 (Kv1.3 [9]) is given as 10 µM.
